Where two headings read alike, the source gives them in different places.
Experiments:
[1] = test system: TNF-α in CD4+ (CD8-) T cells; assay: TNF-α production by CD4+ (CD8-) T cells, flow cytometry; format: cell-based, human; details: for % Positive Cells (TNF-α immunopositive), d-FEN / TNF-α Titer, d-FEN: CD4+ (CD8-) T cells, Mean ± SEM; for inhibition at 0.05 µg/mL: Homo sapiens, T-cell
Description: The T lymphocytes analyzed were obtained from 20 HIV+ patients (9 females and 11 males, 25-48 years of age). The patients were diagnosed as being HIV+ within the past 0.5-9 years, and 15 are being treated with antiviral drugs. The subjects' study identification number (indicates the order in which bloods were drawn), CD4+ and CD8+ counts (determined March, 1996, as part of the present study), age, sex, date of diagnosis, and pharmacotherapy are provided in Table 1.
The experimental protocol for this project is illustrated in Table A. Note that the cultures were exposed to two doses (5 and 50 ng/ml) of d-FEN in the mitogenesis assays, whereas only one dose (50 ng/ml) was used in the antifungal and cytokine release assays.
Cytokine Profiles. Peripheral mononuclear cells were isolated by the Ficoll-Hypaque method and washed twice with RPMI-1640 medium. Cell suspensions were made at 1×10^6 /ml and the cells activated with interleukin-2 (IL-2) for 18 h or 4 days at 37° C. under 5% CO^2 +95% air. Monensin (1 nM) then was added to the culture to block secretion of cytokines, and the cultures allowed to continue for another 3 h. The cells were washed twice with PBS+1% fetal calf serum (FCS) with 0.1% saponin+0.1% sodium azide, then washed once with PBS-1% FCS and stained with anti-cytokine MAb-FL conjugate for 30 min. Following two washes, the cells were analyzed by flow cytometry for production of IL-2, IFN-γ and TNF-α. The MAbs-FL conjugates were obtained from Pharmingen (San Diego, Calif.). Potential effects of on cytokine production were evaluated (a) as increases in the percentage of a T cell subset which produce the respective cytokine; and, (b) as increases in the amount of cytokine produced by each subset. The latter were analyzed as a shift of the cytokine histograms.
The data were analyzed by a one- or two-way analysis of variance (ANOVA) with repeated measures where appropriate ([…] version 1; Jandel, San Rafael, Calif.). Significant main effects were subjected to post hoc analysis using the Student-Newman Keuls All Pairwise Multiple Comparisons test or the Mann-Whitney U test.

K562 human tumor cells = assay: Natural killer cell cytotoxicity of human PBMC against K562 tumor cells in vitro; format: cell-based
Procedure: Prior to conducting the above experiment, we examined the dose dependent effects of d-FEN on the ability of human PBMC obtained from five healthy volunteers (person Caucasians) to kill human K562 tumor cells in vitro. The potential cytotoxic enhancing effects of d-FEN and d-norFEN were compared using PBMC from two of the five human donors.
For assessment of immunological parameters of human PBMC, venous blood as aseptically drawn into sterile 10 ml tubes containing 20 U/ml preservative free heparin, diluted with an equal volume of Hank's Balanced Salt Solution (HBSS), layered over Lymphocyte Separation Medium (LSM, Bionetics, Kensington, Md.) and centrifuged at 1,000 ×g for 30 min. After centrifugation, the mononuclear cell layer was recovered from the interface and washed twice in HBSS and enumerated.
The K562 cell line originated from a chronic myelogenous leukemia patient and was obtained from Dr. T. Ellis (Director, Cellular Immunology Laboratory, LUMC). The K562 cells used for assessment of cytotoxic activity were maintained in long term cultures using Corning 25 cm^2 tissue culture flasks (Corning Glass Works, Corning, N.Y.) containing RPMI 1640 (Gibco Laboratories, Grand Island, N.Y.) supplemented with low LPS 10% fetal bovine serum (FBS; Gibco), 100 units/ml penicillin, 100 μg/ml streptomycin (Whittaker M. A. Bioproducts, Walkersville, Md.), 0.1 mM non-essential amino acids, and 2 mM L-glutamine (Gibco). This medium was used throughout, except where noted, and is referred to as "culture medium". The K562 cells were grown in suspension and were passaged three times per week by transfer of 10^6 K562 cells into a flask containing 10 ml of fresh culture medium. The K562 cells injected into the SCID mice were supplemented with fresh medium at a 1:3 dilution the day before administration. They were washed once in medium, pelleted by centrifugation at 500 ×g for 10 min., then resuspended at a concentration of 5×10^7. Subsequently, 0.2 ml (1×10^7 cells) of the cell suspension was injected (i.p.) into each SCID mouse. The K562 cells were administered to the animals four days after the injection of PBMC.
The K562 tumor cell lines maintained in vitro were washed once in culture medium, pelleted by centrifugation at 500×g for 10 min and resuspended in approximately 0.1 ml of culture medium. Subsequently, 100 μCi of [^51 Cr] (New England Nuclear, Boston, Mass.) was added to 1×10^5 cells in a final volume of 0.2 ml. The cells were incubated at 37° C. with 5% CO2 for 1 h with agitation every 10 min, then washed 3 times in HBSS, resuspended to 5×10^4 cells/ml in culture medium and 0.1 ml (5×10^3) aliquoted to each well of a 96 well round bottom assay plate (Corning Glass Works, Corning, N.Y.). Radiolabelled K562 was cultured for 4 h with lymphocytes at effector to target ratios ranging from 50:1 to 6:1. Following 4 h of culture the media was removed using a Skatron harvesting press (Skatron Inc., Sterling, Va.) and associated radioactivity determined. Maximum release was obtained by adding 0.05% Nonidet P-40 (Sigma Chemical Co., St. Louis, Mo.).
The results have been expressed as % cytotoxicity and calculated by the formula: % cytotoxicity=[(experimental DPM-minimum DPM)/(maximum DPM-minimum DPM)]×100.
All experimental means were calculated from triplicate values. Lytic units (LU) were calculated using a computer program written by David Coggins, FCRC, Frederick, Md.

In the case of `CCN[C@@H](C)Cc1cccc(C(F)(F)F)c1` [d-FEN], the “% Positive Cells (TNF-α immunopositive), d-FEN” value ([1]; 50 ng/ml, AIDS) is reported as 31 ± 4%, the “TNF-α Titer, d-FEN” value ([1]; 50 ng/ml, AIDS) is reported as 156 ± 40 geometric mean channel fluorescence and the “% Positive Cells (TNF-α immunopositive), d-FEN” value ([1]; 50 ng/ml, non-AIDS HIV+) is reported as 69 ± 3%. The “TNF-α Titer, d-FEN” value ([1]; 50 ng/ml, non-AIDS HIV+) was 310 ± 40 geometric mean channel fluorescence, the “effect on TNF-α level in words” value ([1]; 50 ng/ml, CD4+ T cells, AIDS) was “not in the AIDS CD4+ T cells” and the “effect on number of TNF-α+ cells in words” value ([1]; 50 ng/ml, CD4+ T cells, AIDS) was “failed to affect”. The inhibition at 0.05 µg/mL ([1]; read-out: percent change of TNF-α titer vs VEH) was 23%, the inhibition at 0.05 µg/mL ([1]; read-out: reduction of the level of TNF-α) was 23% and the “Percent Change in Cytotoxicity (Mean ± SEM)” value (“Percent Change … (Mean ± SEM)” below) (K562 human tumor cells; 0.25 ng/ml) was 19 ± 2%. The “percent increase in cytotoxicity” value (K562 human tumor cells; 0.25 ng/ml, DONOR #1) was 22%, the “percent increase in cytotoxicity” value (K562 human tumor cells; 0.25 ng/ml, DONOR #2) was 19% and the “Percent Change … (Mean ± SEM)” value (K562 human tumor cells; 0.50 ng/ml) was 28 ± 4%. The “percent increase in cytotoxicity” value (K562 human tumor cells; 0.50 ng/ml, DONOR #1) was 36%, the “percent increase in cytotoxicity” value (K562 human tumor cells; 0.50 ng/ml, DONOR #2) was 21% and the “Percent Change … (Mean ± SEM)” value (K562 human tumor cells; 1.00 ng/ml) was 16 ± 3%. The “percent increase in cytotoxicity” value (K562 human tumor cells; 1.00 ng/ml, DONOR #1) was 23%, the “percent increase in cytotoxicity” value (K562 human tumor cells; 1.00 ng/ml, DONOR #2) was 17% and the “Percent Change … (Mean ± SEM)” value (K562 human tumor cells; 4.00 ng/ml) was 11 ± 5%. For the same compound, the “Percent Change … (Mean ± SEM)” value (K562 human tumor cells; 20.00 ng/ml) was -33 ± 5%, the “Percent Change … (Mean ± SEM)” value (K562 human tumor cells; 50.00 ng/ml) was -53 ± 6% and the “Percent Change … (Mean ± SEM)” value (K562 human tumor cells; 100.00 ng/ml) was -87 ± 2%. For the same compound, the “dose dependent effect on cytotoxicity in words” value (K562 human tumor cells; PBMC of five healthy volunteers, p<0.001) was “low doses of d-FEN enhanced whereas higher doses reduced cytotoxicity”, the “d-FEN vs d-norFEN effect on cytotoxicity in words” value (K562 human tumor cells; PBMC of two donors) was “virtually identical effects” and the “effect on capacity of human NK cells to kill K562, in words” value (K562 human tumor cells; conclusion) was “augments the capacity of human NK cells to kill the human tumor cell line, K562”.

— patent US5955508A, “Method for the enhancement of lymphocyte activity against opportunistic microbial pathogens” (priority 1996, dated 1999)
